Reference: patent US8367873B2, “Phenyl-substituted bicyclooctane-1,3-dione derivatives” (Bayer Cropscience AG, priority 2008, dated 2013)

Assays:
Assay type in all cases: in vivo
Alopecurus myosuroides [1] = experiment: Herbicidal pre-emergence action; conditions: pre-emergence method, 80 g/ha, greenhouse, visual assessment vs untreated controls
In short: (§1)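 Visual percent damage score (100% = dead plants, 0% = as untreated control) taken three weeks after pre-emergence treatment. Compounds were wettable powders sprayed onto covering soil over seeds in sandy loam, 600 l/ha water with 0.2% wetting agent, several application amounts; pots kept in greenhouse.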

Echinocloa crus-galli [2] = experiment: Herbicidal pre-emergence action; conditions: pre-emergence method, 80 g/ha, greenhouse, visual assessment vs untreated controls
In short: as §1

Lolium multiflorum [3] = experiment: Herbicidal pre-emergence action; conditions: pre-emergence method, 80 g/ha, greenhouse, visual assessment vs untreated controls
In short: as §1

Setaria viridis [4] = experiment: Herbicidal pre-emergence action; conditions: pre-emergence method, 80 g/ha, greenhouse, visual assessment vs untreated controls
In short: as §1

Alopecurus myosuroides [5] = experiment: Herbicidal post-emergence action; conditions: post-emergence method; for herbicidal effect against ALOMY (Alopecurus myosuroides): 80 g/ha
In short: (§2)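 One-leaf-stage greenhouse plants sprayed with WP at graded amounts (600 l/ha, 0.2% wetting agent); ~3 wk later, visual % effect rated vs untreated controls, 100% = dead, 0% = like control.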

Echinocloa crus-galli [6] = experiment: Herbicidal post-emergence action; conditions: post-emergence method; for herbicidal effect against ECHCG (Echinochloa crus-galli): 80 g/ha
In short: as §2

Lolium multiflorum [7] = experiment: Herbicidal post-emergence action; conditions: post-emergence method; for herbicidal effect against LOLMU (Lolium multiflorum): 80 g/ha
In short: as §2

Setaria viridis [8] = experiment: Herbicidal post-emergence action; conditions: post-emergence method; for herbicidal effect against SETVI (Setaria viridis): 80 g/ha
In short: as §2

[9] = system: monocotylidonous and dicotylidonous weed and crop plants; experiment: Herbicidal pre-emergence action (other test plants); conditions: pre-emergence method, 80 g/ha, greenhouse, visual assessment vs untreated controls
In short: as §1

[10] = system: monocotylidonous and dicotylidonous weed and crop plants; experiment: Herbicidal post-emergence action (other test plants); conditions: post-emergence method; for herbicidal effect against AVEFA (Avena fatua): 80 g/ha
In short: as §2

Compound | herbicidal effect ALOMY (Alopecurus myosuroides [1]) [%] | herbicidal effect ECHCG (Echinocloa crus-galli [2]) [%] | herbicidal effect LOLMU (Lolium multiflorum [3]) [%] | herbicidal effect SETVI (Setaria viridis [4]) [%] | herbicidal effect against ALOMY (Alopecurus myosuroides) (Alopecurus myosuroides [5]) [%] | herbicidal effect against ECHCG (Echinochloa crus-galli) (Echinocloa crus-galli [6]) [%] | herbicidal effect against LOLMU (Lolium multiflorum) (Lolium multiflorum [7]) [%] | herbicidal effect against SETVI (Setaria viridis) (Setaria viridis [8]) [%] | herbicidal effect AVEFA [9] [%] | herbicidal effect against AVEFA (Avena fatua) [10] [%] | pest or weed control at 80 g/ha (Alopecurus myosuroides [5]; Alopecurus myosuroides, 504 h, read-out: herbicidal effect against ALOMY (Alopecurus myosuroides)) [%] | pest or weed control at 80 g/ha (Echinocloa crus-galli [6]; Echinochloa crus-galli, 504 h, read-out: herbicidal effect against ECHCG (Echinochloa crus-galli)) [%] | pest or weed control at 80 g/ha (Lolium multiflorum [7]; Lolium multiflorum, 504 h, read-out: herbicidal effect against LOLMU (Lolium multiflorum)) [%] | pest or weed control at 80 g/ha (Setaria viridis [8]; Setaria viridis, 504 h, read-out: herbicidal effect against SETVI (Setaria viridis)) [%] | pest or weed control at 80 g/ha ([10]; 504 h, Avena fatua, read-out: herbicidal effect against AVEFA (Avena fatua)) [%]
C=C1CC2C(=O)C(c3c(C)cc(C)cc3CC)=C(OC(=O)C(C)(C)C)C2C1 (centres unmarked) [I-b-73] | 80 | 90 | 100 | 100 | 0 | 100 | 70 | 100 | 80 | 0 |  |  |  |  | 
CCc1cc(C)cc(C)c1C1=C(OC(=O)C(C)(C)C)C2CC3(CC2C1=O)OCCCO3 (centres unmarked) [I-b-74] | 60 | 100 | 100 | 70 | 80 | 100 | 100 | 80 | 60 | 80 |  |  |  |  | 
CCc1cc(C)cc(C)c1C1=C(OC(=O)C(C)(C)C)C2CC3(CC2C1=O)OCC=CCO3 (centres unmarked) [I-b-75] | 60 | 100 | 100 | 70 | 100 | 100 | 100 | 100 | 60 | 90 |  |  |  |  | 
CCc1cc(C)cc(C)c1C1=C(OC(=O)C(C)C)C2CC3(CC2C1=O)OCC=CCO3 (centres unmarked) [I-b-76] | 100 | 100 | 100 | 70 | 90 | 100 | 100 | 100 | 60 | 90 |  |  |  |  | 
CCc1cc(C)cc(C)c1C1=C(OC(=O)C(C)(C)C)C2CC3(CC2C1=O)OCCCCO3 (centres unmarked) [I-b-78] | 100 | 100 | 100 | 60 | 100 | 100 | 100 | 70 | 60 | 70 |  |  |  |  | 
CCc1cc(C)cc(C)c1C1=C(OC(=O)C(C)C)C2CC3(CC2C1=O)OCCO3 (centres unmarked) [I-b-79] | 70 | 100 | 100 | 80 | 90 | 100 | 100 | 100 | 70 | 100 |  |  |  |  | 
CCc1cc(C)cc(CC)c1C1=C(OC(=O)OC(C)C)C2CC3(COC(C)(C)O3)CC2C1=O (centres unmarked) [I-c-2] | 90 | 40 | 100 | 60 | 90 | 40 | 100 | 40 | 50 | 40 |  |  |  |  | 
C=C1CC2C(=O)C(c3c(CC)cc(C)cc3CC)=C(OC(=O)OCC)C2C1 (centres unmarked) [I-c-5, 2-(2,6-diethyl-4-methylphenyl)-5-methylidene-3-oxo-3,3a,4,5,6,6a-hexahydropentalen-1-yl ethyl carbonate] | 80 | 90 | 80 | 80 |  |  |  |  | 80 |  | 20 | 100 | 90 | 90 | 30
CCOC(=O)OC1=C(c2c(CC)cc(C)cc2CC)C(=O)C2CC3(CC12)OC(C)CC(C)O3 (centres unmarked) [I-c-13] | 90 | 60 | 80 | 60 | 70 | 100 | 100 | 90 | 50 | 80 |  |  |  |  | 
CCOC(=O)OC1=C(c2c(CC)cc(C)cc2CC)C(=O)C2CC3(CC12)OC(C)(C)C(C)(C)O3 (centres unmarked) [I-c-18] | 90 | 100 | 100 | 10 | 60 | 80 | 90 | 0 | 0 | 0 |  |  |  |  | 
CCc1cc(C)cc(CC)c1C1=C(OC(=O)OC)C2CC3(CC2C1=O)OCC=CCO3 (centres unmarked) [I-c-21] | 90 | 100 | 100 | 100 | 90 | 100 | 100 | 100 | 70 | 100 |  |  |  |  | 
